What is called AUC(0-inf) is total exposure, with the tail of the curve extrapolated. Lower therefore signals low exposure. As usually defined, the Cmax is the peak of the concentration-time curve. What is called Tmax is the time at which the peak concentration occurs. By half-life is commonly meant the time needed for the level to fall by half in the phase considered. Higher therefore signals slow loss.

Consider one compound from patent US20240277749A1, “NEW FORMULATIONS COMPRISING AZACITIDINE” (NANEXA AB, priority 2021, published 2024).

For data set [1] the following is noted: standard of care over seven consecutive days by injection or infusions, cited from earlier work.
The next data set is described as follows: clinical. The settings on record: human, plasma, sc, 100 mg/m2.

On to `Nc1ncn([C@@H]2O[C@H](CO)[C@@H](O)[C@H]2O)c(=O)n1` [azacitidine, 4-amino-1-®-D-ribofuranosyl-s-triazin-2(1H)-one], for which the “average AUC∞” value in data set [1] (525 mg/m^2 of BSA) is 960 ± 458 ng·h/mL. Moreover, the “average Cmax” value in data set [1] is 750 ± 403 ng/mL. For the same compound, in “clinical”, the AUC(0-inf) is 1120 ng·h/mL, the highest concentration (Cmax) amounted to 562 ng/mL, the Tmax is 0.433 h and the half-life is 6.82 h.
